# Read-outs that look alike come from different tables or passages of the source.
# Experiments:
# [1] = test system: SW620 cells; experiment: MTT assay, SW620; assay type: cell-based, human; conditions: for IC50: human metastatic colon cancer, 72 h, MTT, mean ± SD; for SI SW620: SI = IC50 for normal cell line (HaCaT)/IC50 cancer cell line
# [2] = test system: SW480 cells; experiment: MTT assay, SW480; assay type: cell-based, human; conditions: for IC50: human primary colon cancer, 72 h, MTT, mean ± SD; for SI SW480: SI = IC50 for normal cell line (HaCaT)/IC50 cancer cell line
# [3] = target: S. aureus DNA gyrase (Staphylococcus aureus, UniProt P0A0K8+P20831); experiment: biochemical
# [4] = target: T1, S. aureus topoisomerase IV (Staphylococcus aureus, UniProt P0C1S7+P0C1U9); experiment: S. aureus topoisomerase IV decatenation assay; assay type: biochemical
# T1 construct: purchased Inspiralis
# Method: The assay was performed using S. aureus topoisomerase IV […] kit (Inspiralis). Kinetoplast DNA (kDNA) was the substrate for topoisomerase IV.
# [5] = test system: S. epidermidis T 5501 851/19; experiment: MIC, clinical S. epidermidis strain; assay type: cell-based; conditions: Staphylococcus epidermidis, T5501851/19, read-out: MIC T 5501 851/19, quinolone-susceptible, 18 h of treatment
# [6] = test system: S. epidermidis KR 4313 834/19; experiment: MIC, clinical S. epidermidis strain; assay type: cell-based; conditions: Staphylococcus epidermidis, KR4313834/19, quinolone-susceptible, 18 h of treatment
# [7] = test system: S. aureus NCTC 4163; experiment: MIC, twofold microdilution, standard strain; assay type: cell-based; conditions: Staphylococcus aureus, NCTC4163; 18 h of treatment; read-out: MIC S. aureus NCTC 4163
# [8] = test system: P. aeruginosa ATCC 27853; experiment: MIC, twofold microdilution, standard strain; assay type: cell-based; conditions: Pseudomonas aeruginosa, read-out: MIC P. aeruginosa ATCC 27853
# [9] = test system: S. epidermidis ATCC 35984; experiment: MIC, twofold microdilution, standard strain; assay type: cell-based; conditions: Staphylococcus epidermidis, ATCC35984; 18 h of treatment; read-out: MIC S. epidermidis ATCC 35984
# [10] = test system: S. epidermidis KR 4243 829/19; experiment: MIC, clinical S. epidermidis strain; assay type: cell-based; conditions: Staphylococcus epidermidis, KR4243829/19, quinolone-susceptible, 18 h of treatment
# [11] = test system: S. aureus ATCC 6538; experiment: MIC, twofold microdilution, standard strain; assay type: cell-based; conditions: Staphylococcus aureus, ATCC6538; 18 h of treatment; read-out: MIC S. aureus ATCC 6538
# [12] = test system: M. tuberculosis Spec. 192 (Sensitive to Tuberculostatics); experiment: MABA (microplate Alamar blue assay) MIC; assay type: cell-based; conditions: Mycobacterium tuberculosis, 336 h, read-out: MIC M. tuberculosis Spec. 192 (Sensitive to Tuberculostatics)
# [13] = test system: S. epidermidis KR 4358/2 840/19; experiment: MIC, clinical S. epidermidis strain; assay type: cell-based; conditions: Staphylococcus epidermidis, KR4358/2840/19; clinical S. epidermidis, quinolone-susceptible, 18 h of treatment; read-out: MIC KR 4358/2 840/19
# [14] = test system: S. aureus ATCC 25923; experiment: MIC, twofold microdilution, standard strain; assay type: cell-based; conditions: Staphylococcus aureus, ATCC25923; 18 h of treatment; read-out: MIC S. aureus ATCC 25923
# [15] = test system: S. epidermidis KR 4047 825/19; experiment: MIC, clinical S. epidermidis strain; assay type: cell-based; conditions: Staphylococcus epidermidis, KR4047825/19, quinolone-resistant, 18 h of treatment
# [16] = test system: S. epidermidis ATCC 12228; experiment: MIC, twofold microdilution, standard strain; assay type: cell-based; conditions: Staphylococcus epidermidis, ATCC12228; 18 h of treatment; read-out: MIC S. epidermidis ATCC 12228
# [17] = test system: S. aureus ATCC 29213; experiment: MIC, twofold microdilution, standard strain; assay type: cell-based; conditions: Staphylococcus aureus, ATCC29213; 18 h of treatment; read-out: MIC S. aureus ATCC 29213
# [18] = test system: standard staphylococci (S. aureus, S. epidermidis); experiment: MIC, standard Gram-positive strains as a group; assay type: cell-based; conditions: Staphylococcus aureus; range over standard Gram-positive strains; read-out: MIC against standard staphylococci
# [19] = test system: E. coli ATCC 25922; experiment: MIC, twofold microdilution, standard strain; assay type: cell-based, Escherichia coli; conditions: Escherichia coli, ATCC25922; 18 h of treatment; read-out: MIC E. coli ATCC 25922
# [20] = test system: S. epidermidis T 5253 845/19; experiment: MIC, clinical S. epidermidis strain; assay type: cell-based; conditions: Staphylococcus epidermidis, T5253845/19, quinolone-resistant, 18 h of treatment
# [21] = test system: M. tuberculosis H37Rv; experiment: MABA (microplate Alamar blue assay) MIC; assay type: cell-based; conditions: Mycobacterium tuberculosis, 336 h, read-out: MIC M. tuberculosis H37Rv
# [22] = test system: HaCaT cells; experiment: MTT assay, HaCaT normal cells; assay type: cell-based; conditions: human immortal keratinocyte cell line, 72 h, mean ± SD
# [23] = test system: PC3 cells; experiment: MTT assay, PC3; assay type: cell-based, human; conditions: for IC50: Homo sapiens, PC-3, 72 h, human metastatic prostate cancer, 72 h, MTT, mean ± SD; for SI PC3: SI = IC50 for normal cell line (HaCaT)/IC50 cancer cell line
# [24] = test system: S. epidermidis T 5399 848/19; experiment: MIC, clinical S. epidermidis strain; assay type: cell-based; conditions: Staphylococcus epidermidis, T5399848/19, quinolone-susceptible, 18 h of treatment
compound,measurement,setting,value
"N.N.[Cl][Pt][Cl] [Cisplatin, reference compound]",IC50,[1],6.7 ± 1.1 µM
same,IC50,[2],10.4 ± 0.9 µM
CC=CC(=O)N1CCN(c2cc3c(cc2F)c(=O)c(C(=O)O)cn3C2CC2)CC1 [Compound 1],IC50,[3],> 160 µM
same,IC50,[4],> 160 µM
CC=CC=CC(=O)N1CCN(c2cc3c(cc2F)c(=O)c(C(=O)O)cn3C2CC2)CC1 [Compound 2],IC50,[3],79.9 µM
same,IC50,[4],75.2 µM
CC(C)=CCCC(C)=CC(=O)N1CCN(c2cc3c(cc2F)c(=O)c(C(=O)O)cn3C2CC2)CC1 [Compound 3],IC50,[3],107 µM
same,IC50,[4],> 133 µM
"CCCCCCCC/C=C\CCCCCCCCCCCC(=O)N1CCCC2CN(c3c(F)cc4c(=O)c(C(=O)O)cn(C5CC5)c4c3OC)CC21 (centres unmarked) [Compound 7m, 1-Cyclopropyl-7-{1-(Z)-docos-13-enoyl-octahydro-pyrrolo[3,4-b]pyridin-6-yl}-6-fluoro-8-methoxy-4-oxo-1,4-dihydro-quinoline-3-carboxylic acid]",MIC,[5],256 µg/mL
same,MIC,[6],256 µg/mL
same,MIC,[7],256 µg/mL
same,IC50,"[1]; Homo sapiens, SW-620, 72 h",51.8 ± 4.3 µM
same,SI SW620,[1],1.6
same,MIC,"[8]; ATCC27853, 18 h",> 512 µg/mL
same,MIC,[9],256 µg/mL
same,MIC,[10],256 µg/mL
same,MIC,[11],128 µg/mL
same,MIC,[12],> 512 µg/mL
same,MIC,[13],256 µg/mL
same,MIC,[14],512 µg/mL
same,MIC,[15],512 µg/mL
same,MIC,[16],512 µg/mL
same,MIC,[17],512 µg/mL
same,MIC,[18],> 32 µg/mL
same,IC50,"[2]; Homo sapiens, SW480, 72 h",48.6 ± 2.6 µM
same,SI SW480,[2],1.8
same,MIC,[19],256 µg/mL
same,MIC,[20],> 512 µg/mL
same,MIC,[21],> 512 µg/mL
same,IC50,[22],85.2 ± 3.3 µM
same,IC50,[23],36.5 ± 2.3 µM
same,SI PC3,[23],2.3
same,MIC,[24],512 µg/mL
"CCCCCCCCCCCCCCCCCC(=O)N1CCCC2CN(c3c(F)cc4c(=O)c(C(=O)O)cn(C5CC5)c4c3OC)CC21 (centres unmarked) [Compound 16m, 1-Cyclopropyl-6-fluoro-8-methoxy-7-(1-octadecanoyl-octahydro-pyrrolo[3,4-b]pyridin-6-yl)-4-oxo-1,4-dihydro-quinoline-3-carboxylic acid]",MIC,[5],512 µg/mL
same,MIC,[6],128 µg/mL
same,MIC,[7],64 µg/mL
same,IC50,"[1]; Homo sapiens, SW-620, 72 h",6.5 ± 1.2 µM
same,SI SW620,[1],12.5
same,MIC,"[8]; ATCC27853, 18 h",> 512 µg/mL
same,MIC,[9],64 µg/mL
same,MIC,[10],64 µg/mL
same,MIC,[11],64 µg/mL
same,MIC,[12],> 512 µg/mL
same,MIC,[13],512 µg/mL
same,MIC,[14],64 µg/mL
same,MIC,[15],256 µg/mL
same,MIC,[16],64 µg/mL
same,MIC,[17],64 µg/mL
same,MIC,[18],> 32 µg/mL
same,IC50,"[2]; Homo sapiens, SW480, 72 h",< 5 µM
same,SI SW480,[2],30.2
same,IC50,[2],2.7 ± 0.7 µM
same,MIC,[19],128 µg/mL
same,MIC,[20],512 µg/mL
same,MIC,[21],> 512 µg/mL
same,IC50,[22],81.5 ± 4.2 µM
same,SI PC3,[23],34.0
same,MIC,[24],512 µg/mL
"COc1cccc2c1C(=O)c1c(O)c3c(c(O)c1C2=O)C[C@@](O)(C(=O)CO)C[C@@H]3O[C@H]1C[C@H](N)[C@H](O)[C@H](C)O1 [Doxorubicin, reference compound]",IC50,"[2]; Homo sapiens, SW480, 72 h",0.75 ± 0.1 µM
same,IC50,[22],0.29 ± 0.1 µM
"CC[C@@H](CO)NCCN[C@@H](CC)CO [Ethambutol (EMB), Ethambutol, reference compound]",MIC,[12]; 2 weeks of treatment,2 µg/mL
same,MIC,[21]; 2 weeks of treatment,2 µg/mL
"NNC(=O)c1ccncc1 [Isoniazid (INH), Isoniazid, reference compound]",MIC,[12]; 2 weeks of treatment,0.125 µg/mL
same,MIC,[21],0.125 µg/mL
"COc1c(N2C[C@@H]3CCCN[C@@H]3C2)c(F)cc2c(=O)c(C(=O)O)cn(C3CC3)c12 [MXF, moxifloxacin, reference compound]",MIC,[5],0.1 µg/mL
same,MIC,[6],0.1 µg/mL
same,MIC,[7],0.06 µg/mL
same,IC50,"[1]; Homo sapiens, SW-620, 72 h",54.5 ± 3.8 µM
same,MIC,"[8]; ATCC27853, 18 h of treatment",> 512 µg/mL
same,MIC,[9],0.06 µg/mL
same,MIC,[10],0.1 µg/mL
same,MIC,[11],0.06 µg/mL
same,MIC,[12]; 2 weeks of treatment,0.125 µg/mL
same,MIC,[13],0.1 µg/mL
same,MIC,[14],< 0.03 µg/mL
same,MIC,[15],2 µg/mL
same,MIC,[16],0.06 µg/mL
same,MIC,[17],0.06 µg/mL
same,IC50,"[2]; Homo sapiens, SW480, 72 h",58.4 ± 3.1 µM
same,MIC,[19],< 0.03 µg/mL
same,MIC,[20],4 µg/mL
same,MIC,[21]; 2 weeks of treatment,0.25 µg/mL
same,IC50,[22],121 ± 6.8 µM
same,IC50,[23],46.4 ± 3.2 µM
same,MIC,[24],0.1 µg/mL
"CO[C@H]1/C=C/O[C@@]2(C)Oc3c(C)c(O)c4c(O)c(c(/C=N/N5CCN(C)CC5)c(O)c4c3C2=O)NC(=O)/C(C)=C\C=C\[C@H](C)[C@H](O)[C@@H](C)[C@@H](O)[C@@H](C)[C@H](OC(C)=O)[C@@H]1C [Rifampicin (RMP), Rifampicin, reference compound]",MIC,[12]; 2 weeks of treatment,1 µg/mL
same,MIC,[21]; 2 weeks of treatment,1 µg/mL
"[H]/N=C(/N)N[C@H]1[C@H](O)[C@@H](O)[C@H](O[C@@H]2O[C@@H](C)[C@](O)(C=O)[C@H]2O[C@@H]2O[C@@H](CO)[C@H](O)[C@@H](O)[C@@H]2NC)[C@@H](N/C(N)=N\[H])[C@@H]1O [Streptomycin (SM), Streptomycin, reference compound]",MIC,[12]; 2 weeks of treatment,1 µg/mL
same,MIC,[21]; 2 weeks of treatment,1 µg/mL

# From paper PMC9181188 (International Journal of Molecular Sciences, 2022)
